# Biological target: T1, SiTPS (Serendipita indica, UniProt G4TNA6)
# T1 construct: gene PIIN_06735; full coding region from S. indica cDNA, C-terminal His-tag (pET28b+), E. coli C41, His SpinTrap purified and desalted
# T1 sequence (G4TNA6 1-515): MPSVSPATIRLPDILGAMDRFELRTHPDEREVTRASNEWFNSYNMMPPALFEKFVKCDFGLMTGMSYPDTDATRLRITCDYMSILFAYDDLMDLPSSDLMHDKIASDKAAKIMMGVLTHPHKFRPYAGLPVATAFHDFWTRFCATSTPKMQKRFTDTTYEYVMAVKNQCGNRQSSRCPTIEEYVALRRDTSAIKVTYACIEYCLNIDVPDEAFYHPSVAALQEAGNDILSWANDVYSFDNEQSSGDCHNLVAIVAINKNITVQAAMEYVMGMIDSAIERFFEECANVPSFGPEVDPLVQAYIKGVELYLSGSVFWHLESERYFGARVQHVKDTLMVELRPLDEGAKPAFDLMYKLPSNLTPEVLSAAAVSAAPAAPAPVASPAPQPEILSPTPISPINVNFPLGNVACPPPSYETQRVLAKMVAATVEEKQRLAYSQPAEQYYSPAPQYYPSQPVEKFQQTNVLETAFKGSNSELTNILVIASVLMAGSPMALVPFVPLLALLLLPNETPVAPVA
# Assay: in vitro terpene synthase assay, GC-MS of hexane extract
# Type: biochemical
# Settings: 10 mM MgCl2, 100 mM KCl, 5 mM DTT, 10% glycerol, 50 mM HEPES pH 7.2, 30 °C, 1 h
smiles,measurement,value
"CC(C)=CCC/C(C)=C/CC/C(C)=C/COP(=O)(O)OP(=O)(O)O [E,E-FPP]","in vitro terpene synthase assay, GC-MS of hexane extract","Hexane extracts showed activity only when SiTPS was incubated with E,E-FPP"

# From publication PMC8234273, “A Sesquiterpene Synthase from the Endophytic Fungus Serendipita indica Catalyzes Formation of Viridiflorol” (Biomolecules, 2021)
